Laboratory results published in patent publication EP1534672B1, “RETINOL DERIVATIVES, THEIR USE IN THE TREATMENT OF CANCER AND FOR POTENTIATING THE EFFICACY OF OTHER CYTOTOXIC AGENTS” (priority 2002, dated 2004).
Where “and” joins values, the source holds several entries; their conditions need not be identical. Equal values may be shown once. Marks after values point to notes of the source that are not given here.

Columns and labels:
[1] = tested on: Human Ovary Adenocarcinoma Cell Line SKOV-3; assay: Drug cytotoxicity testing (viable cell count, trypan blue exclusion, cell growth inhibition); type: cell-based; conditions: alone or in formulation at molar ratio 1:6
Protocol: MDA-MB-231 cells were propagated in MEM culture medium with 2 mM L-glutamine, 10% heat-inactivated fetal bovine serum (FBS) and antibiotics. DU 145 cells were cultured in MEM culture medium containing 2 mM L-glutamine, 1 mM sodium pyruvate, 10% FBS and antibiotics. SKOV-3 cells were cultured in McCoy's 5A culture medium, supplemented with 1,5 mM L-glutamine, 10% FBS and antibiotics. A549 cells were cultured in Ham's F-12 culture medium with 1 mM L-glutamine, 10% FBS and antibiotics. All media and supplements were purchased from Sigma-Aldrich (St.Louis, MO, USA). Cell propagation of all lines was carried out in Falcon™ 25 cm^2 cultivation flasks (Becton Dickinson Labware).
Drug cytotoxicity testing was carried out with using Falcon™ 96-well cultivation plates for adherent cells (Becton Dickinson Labware). These plates were seeded by cells either at 12 × 10^3 MDA-MB-231 cells/well, or at 12 × 10^3 DU 145 cells/well, or at 14 × 10^3 SKOV-3 cells/well, or at 10 × 10^3 A549 cells/well in a volume of 200 µL/well.
The cell cultures in cultivation plates were allowed to adhere for 24 hour of incubation. On day 1 after cell seeding, 2 µL solutions of the drugs to be tested in medium with 5% FBS was added to the cultures. In the control cultures, 2 µL of medium with 5% FBS was added as solvent control. The cells were incubated for 2 consecutive days. At the end of the incubation period adherent cells were detached by trypsinization and the number of viable cells was counted using trypan blue exclusion test and a hemocytometer. All data were derived from an average of three determinations each in six replicates. The results were expressed as mean cell number ± SE and the differences between control and test series evaluated by means of Student's t-test. The drug cytotoxicity was evaluated based on the extent of cell growth inhibition. The cell growth inhibition of the tested drugs was calculated as follows: Cell growth inhibition,% = (Control-TestSeries)/(Control) × 100 [formula]

[2] = tested on: Human Breast Adenocarcinoma Cell Line MDA-MB-231; assay: as above; type: cell-based
Summary of the method: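 A549 cells (10 × 10^3/well) and MDA-MB-231 cells (12 × 10^3/well) were left to adhere for 24 h, then exposed to drugs in medium with 5% FBS for 2 days. Viable cells were counted by trypan blue exclusion after trypsinization. Growth inhibition (%) = (control − test)/control × 100, from three determinations in six replicates each.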

[3] = single dose i.p. toxicity study in rats
Protocol: A single dose i.p. toxicity study in rats was carried out. […] The minimal lethal dose is thus above 100 mg/kg body weight for these compounds.

[4] = cytotoxic drug alone 10^-8 mol/L, average of positive controls in medium with 5% FBS, normal saline and saline with 2,3 mM CaCl2
[5] = cytotoxic drug alone 10^-9 mol/L, average of positive controls in medium with 5% FBS, normal saline and saline with 2,3 mM CaCl2

Structure (SMILES)	inhibition at 0.1 µM ([1]; Homo sapiens, SK-OV-3, cytotoxic drug 10^-7 mol/L (100 nM), working solutions in medium with 5% FBS) [%]	inhibition at 0.01 µM ([1]; Homo sapiens, SK-OV-3, cytotoxic drug 10^-8 mol/L, working solutions in medium with 5% FBS) [%]	inhibition at 0.001 µM ([1]; Homo sapiens, SK-OV-3, cytotoxic drug 10^-9 mol/L, working solutions in medium with 5% FBS) [%]	IC50 ([1]; Homo sapiens, SK-OV-3, as concentration of cytotoxic drug, medium with 5% FBS, calculated from three concentrations, read-out: IC50 mol/L (a)) [nM]	Tumor Cell Number, × 10^3 ([1]; cytotoxic drug 10^-7 mol/L (100 nM), working solutions in medium with 5% FBS)	Tumor Cell Number, × 10^3 ([1]; cytotoxic drug 10^-7 mol/L (100 nM), working solutions in medium with 5% FBS, listed as paclitaxel)	Tumor Cell Number, × 10^3 ([1]; cytotoxic drug 10^-8 mol/L, working solutions in medium with 5% FBS)	Tumor Cell Number, × 10^3 ([1]; cytotoxic drug 10^-9 mol/L, working solutions in medium with 5% FBS)	inhibition at 0.01 µM ([2]; Homo sapiens, MDA-MB-231, cytotoxic drug alone 10^-8 mol/L, average of positive controls in medium with 5% FBS, normal saline and saline with 2,3 mM CaCl2, read-out: Cell Growth Inhibition, %) [%]	inhibition at 0.001 µM ([2]; Homo sapiens, MDA-MB-231, cytotoxic drug alone 10^-9 mol/L, average of positive controls in medium with 5% FBS, normal saline and saline with 2,3 mM CaCl2, read-out: Cell Growth Inhibition, %) [%]	IC50 ([2]; Homo sapiens, MDA-MB-231, cytotoxic drug alone, average of positive controls, calculated from three concentrations, read-out: IC50 mol/L (a)) [nM]	Tumor Cell Number, × 10^3 ([2]; cytotoxic drug alone 10^-7 mol/L, average of positive controls in medium with 5% FBS, normal saline and saline with 2,3 mM CaCl2)	Cell Growth Inhibition, % [2, 4]	Tumor Cell Number, × 10^3 [2, 4]	Cell Growth Inhibition, % [2, 5]	Tumor Cell Number, × 10^3 [2, 5]	minimal lethal dose [3]
CC(=O)O[C@H]1C(=O)[C@@]2(C)[C@H]([C@H](OC(=O)c3ccccc3)[C@]3(O)C[C@H](OC(=O)[C@H](O)[C@@H](NC(=O)c4ccccc4)c4ccccc4)C(C)=C1C3(C)C)[C@]1(OC(C)=O)CO[C@@H]1C[C@@H]2O [Paclitaxel, paclitaxel, reference compound]	71.1	59.9	24.8	4.5	14.1 ± 0.98 × 10^3	14.6 ± 0.82 × 10^3	19.9 ± 1.45 × 10^3	37.3 ± 1.80 × 10^3	43.3	27.3	17	16.0±0.72 × 10^3 and 16.6±0.86 × 10^3	43.9* %	32.2±1.60 × 10^3 and 32.8±1.07 × 10^3	27.7* %	41.3±1.93 × 10^3 and 42.3±1.55 × 10^3	
CC1=C(/C=C/C(C)=C/C=C/C(C)=C/C(=O)N[C@@H](CS(=O)O)C(=O)O)C(C)(C)CCC1 (stereo in doubt) [I-2, N-(all-trans-Retinoyl)-L-cysteinesulfinic acid]																	above 100 mg/kg body weight
